Experimental data as given in PMC9916866 (International Journal of Molecular Sciences, 2023).

Columns and labels:
[1] = biological target: T1, AT1 receptor (Homo sapiens, UniProt P30556)
T1 sequence (P30556 1-359): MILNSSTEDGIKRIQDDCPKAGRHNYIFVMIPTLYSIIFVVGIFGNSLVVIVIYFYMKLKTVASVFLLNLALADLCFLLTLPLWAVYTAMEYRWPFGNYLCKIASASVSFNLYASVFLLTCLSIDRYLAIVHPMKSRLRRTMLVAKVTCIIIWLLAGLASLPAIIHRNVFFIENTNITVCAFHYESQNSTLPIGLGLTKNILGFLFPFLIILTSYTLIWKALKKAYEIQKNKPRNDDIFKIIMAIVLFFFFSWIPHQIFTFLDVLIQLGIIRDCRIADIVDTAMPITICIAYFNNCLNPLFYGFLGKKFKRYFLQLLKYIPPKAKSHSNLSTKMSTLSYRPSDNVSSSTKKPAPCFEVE

[2] = biological target: T1, AT1 receptor; assay: cell-based; assay type: cell-based; design: expressed in transfected cells; host or cells: HEK293T
[3] = biological target: T1, AT1 receptor; assay type: cell-based; design: expressed in transfected cells; host or cells: HEK293T
[4] = tested on: T2, AT2 receptor; assay type: binding, rat
T2 construct: expressed in transfected cells

Structure (SMILES)	increase in BRET signal (β-arrestin 2 recruitment) by the substance alone [1]	inhibition of AngII-induced β-arrestin 2 BRET signal, 1 µM candesartan [1]	activation of Gαi3 by the substance alone [2]	inhibition of AngII-induced Gαi3 activation, 1 µM candesartan [2]	activation of GαoA pathway by the substance alone [3]	inhibition of AngII-induced GαoA activation, 1 µM candesartan [3]	non-specific labelling of cells compared to total labelling with Cy5-AngII alone, AT2 [4]
CCOc1nc2cccc(C(=O)O)c2n1Cc1ccc(-c2ccccc2-c2nnn[nH]2)cc1 [candesartan]	Neither the candesartan nor the toxin alone could induce an increase in the BRET signal	completely inhibits	Neither candesartan, an AT1 receptor antagonist, nor the toxin alone could induce the activation of Gαi3	fully inhibited	Neither the toxin nor the candesartan alone can induce activation of this pathway	blocked	–
CC[C@H](C)[C@H](NC(=O)[C@H](Cc1ccc(O)cc1)NC(=O)[C@@H](NC(=O)[C@H](CCCNC(=N)N)NC(=O)[C@@H](N)CC(=O)O)C(C)C)C(=O)N[C@@H](Cc1c[nH]cn1)C(=O)N1CCC[C@H]1C(=O)N[C@@H](Cc1ccccc1)C(=O)O [AngII, angiotensin II]	–	–	–	–	–	–	7%
